Measurements as given in ChEMBL document CHEMBL1157125, “Modifications of C-2 on the pyrroloquinoline template aimed at the development of potent herpesvirus antivirals with improved aqueous solubility” (Bioorg Med Chem Lett, 2010).

How the values were obtained:
Format in all cases: ADME, organism-based
[1] = Volume of distribution at steady state in rat; settings: in vivo, read-out: Vdss
[2] = Clearance in rat; settings: in vivo
[3] = Half life in rat; settings: in vivo
[4] = Oral bioavailability in rat; settings: in vivo

O=C(NCc1ccc(Cl)cc1)c1cn2c(CCO)cc3cc(CN4CCOCC4)cc(c1=O)c32
Vd [1]: 1.7 L/kg | clearance [2]: 41.7 mL/min/kg | half-life [3]: 48 min | bioavailability [4]: 66%
